Data reported in patent US5567692A, “9-[(substituted glycyl) amido)]-6-demethyl-6-deoxytetracyclines” (priority 1995, dated 1996).
≈ marks a conversion by molar mass, not a printed value.

What was measured:
Type in all cases: cell-based
[1] = test system: Proteus vulgaris; assay: MIC range, recent clinical and veterinary isolates; settings: 18 h, read-out: MIC Range
[2] = test system: Xanthamonas maltophilia; assay: MIC range, recent clinical and veterinary isolates; settings: 18 h, read-out: MIC Range
[3] = test system: S. marcescens FPOR 8733; assay: MIC, agar dilution; settings: Serratia marcescens, FPOR8733, 18 h
[4] = test system: Streptococcus pneumoniae; assay: MIC range, recent clinical and veterinary isolates; settings: 18 h, read-out: MIC Range
[5] = test system: Proteus mirabilis; assay: MIC range, recent clinical and veterinary isolates; settings: 18 h, read-out: MIC Range
[6] = test system: Pasturella multocida (Veterinary); assay: MIC range, recent clinical and veterinary isolates; settings: 18 h, [17] isolates
[7] = test system: Bacteroides fragilis group; assay: MIC range, recent clinical and veterinary isolates; settings: Bacteroides fragilis, 18 h, read-out: MIC Range
[8] = test system: Clostridium spp.; assay: MIC range, recent clinical and veterinary isolates; settings: [9] isolates
[9] = test system: Enterococcus faecium; assay: MIC range, recent clinical and veterinary isolates; settings: 18 h, read-out: MIC Range
[10] = test system: E. coli J2175; assay: MIC, agar dilution; settings: Escherichia coli, 18 h, read-out: MIC
[11] = test system: Enterococcus faecalis; assay: MIC range, recent clinical and veterinary isolates; settings: 18 h, read-out: MIC Range
[12] = test system: S. aureus UBMS 88-4; assay: MIC, agar dilution; settings: Staphylococcus aureus, UBMS884, 18 h; S. aureus UBMS 88-4
[13] = test system: S. aureus NEMC 8769; assay: MIC, agar dilution; settings: Staphylococcus aureus, NEMC8769, 18 h
[14] = test system: E. coli J3272 Tet sens; assay: MIC, agar dilution; settings: Escherichia coli, J3272TETSENS, 18 h
[15] = test system: Citrobacter freundii; assay: MIC range, recent clinical and veterinary isolates; settings: 18 h, read-out: MIC Range
[16] = test system: S. aureus ATCC 29213; assay: MIC, agar dilution; settings: Staphylococcus aureus, ATCC29213, 18 h, S. aureus ATCC 29213
[17] = test system: Enterobacter cloacae; assay: MIC range, recent clinical and veterinary isolates; settings: 18 h, read-out: MIC Range
[18] = test system: Staphylococcus aureus, (methicillin-susceptible); assay: MIC range, recent clinical and veterinary isolates; settings: Staphylococcus aureus, 18 h, read-out: MIC Range
[19] = test system: E. coli ATCC 25922; assay: MIC, agar dilution; settings: Escherichia coli, ATCC25922, 18 h
[20] = test system: Clostridium difficile; assay: MIC range, recent clinical and veterinary isolates; settings: Clostridioides difficile, 18 h, read-out: MIC Range
[21] = test system: Ps. aeruginosa ATCC 27853; assay: MIC, agar dilution; settings: Pseudomonas aeruginosa, ATCC27853, 18 h
[22] = test system: S. aureus UBMS 90-3; assay: MIC, agar dilution; settings: Staphylococcus aureus, UBMS903, 18 h, S. aureus UBMS 90-3
[23] = test system: Bordetella bronchiseptica (Veterinary); assay: MIC range, recent clinical and veterinary isolates; settings: Bordetella bronchiseptica, 18 h, read-out: MIC Range
[24] = test system: Citrobacter diversus; assay: MIC range, recent clinical and veterinary isolates; settings: Citrobacter koseri, 18 h, read-out: MIC Range
[25] = test system: Enterobacter aerogenes; assay: MIC range, recent clinical and veterinary isolates; settings: Klebsiella aerogenes, 18 h, read-out: MIC Range
[26] = test system: Streptococcus pyogenes; assay: MIC range, recent clinical and veterinary isolates; settings: 18 h, read-out: MIC Range
[27] = test system: Clostridium perfringens; assay: microbe, parasite or virus in culture; settings: [16] isolates
[28] = test system: Klebsiella oxytoca; assay: MIC range, recent clinical and veterinary isolates; settings: 18 h, read-out: MIC Range
[29] = test system: S. aureus SMITH (MP); assay: MIC, agar dilution; settings: Staphylococcus aureus, 18 h; S. aureus SMITH (MP)
[30] = test system: Moraxella catarrhalis; assay: MIC range, recent clinical and veterinary isolates; settings: 18 h, read-out: MIC Range
[31] = test system: Enterococcus 12201; assay: MIC, agar dilution; settings: Enterococcus, 12201, 18 h
[32] = test system: Haemophilus influenzae; assay: MIC range, recent clinical and veterinary isolates; settings: 18 h, [15] isolates
[33] = test system: E. coli UBMS 90-5; assay: microbe, parasite or virus in culture; settings: Escherichia coli, UBMS905, 18 h, E. coli UBMS 90-5; read-out: MIC
[34] = test system: Streptococcus agalactiae; assay: MIC range, recent clinical and veterinary isolates; settings: 18 h, read-out: MIC Range
[35] = test system: Pseudomonas aeruginosa; assay: MIC range, recent clinical and veterinary isolates; settings: 18 h, read-out: MIC Range
[36] = test system: S. hemolyticus AVHAH 88-3; assay: MIC, agar dilution; settings: Streptococcus pyogenes, AVHAH883, 18 h

SMILES: CN(C)[C@@H]1C(O)=C(C(N)=O)C(=O)[C@@]2(O)C(O)=C3C(=O)c4c(O)cccc4[C@@](C)(O)[C@H]3C[C@@H]12 [T, Tetracycline]
- MIC [1]: 0.25 to 64 µg/mL (≈ 0.563 to 144 µM)
- MIC [2]: 8 to 16 µg/mL (≈ 18 to 36 µM)
- MIC [3]: > 32 µg/mL
- MIC [4]: 0.12 to 2 µg/mL (≈ 0.27 to 4.5 µM)
- MIC [5]: 0.5 to 64 µg/mL (≈ 1.13 to 144 µM)
- MIC [6]: 0.06 to 16 µg/mL (≈ 0.135 to 36 µM)
- MIC [7]: 0.25 to 32 µg/mL (≈ 0.563 to 72 µM)
- MIC Range [8]: 0.015 to 64 µg/mL
- MIC [9]: 0.12 to 64 µg/mL (≈ 0.27 to 144 µM)
- MIC [10]: 1 µg/mL (≈ 2.25 µM)
- MIC [11]: 0.12 to 64 µg/mL (≈ 0.27 to 144 µM)
- MIC [12]: 0.12 µg/mL (≈ 0.27 µM)
- MIC [13]: 0.06 µg/mL (≈ 0.135 µM)
- MIC [14]: 1 µg/mL (≈ 2.25 µM)
- MIC [15]: 0.5 to 16 µg/mL (≈ 1.13 to 36 µM)
- MIC [16]: < 0.015 µg/mL
- MIC [17]: 0.5 to 2 µg/mL (≈ 1.13 to 4.5 µM)
- MIC [18]: 0.12 to 1 µg/mL (≈ 0.27 to 2.25 µM)
- MIC [19]: 0.5 µg/mL (≈ 1.13 µM)
- MIC [20]: 0.12 to 32 µg/mL (≈ 0.27 to 72 µM)
- MIC [21]: 8 µg/mL (≈ 18 µM)
- MIC [22]: 0.12 µg/mL (≈ 0.27 µM)
- MIC [23]: 0.12 to 0.25 µg/mL (≈ 0.27 to 0.563 µM)
- MIC [24]: 0.5 to 4 µg/mL (≈ 1.13 to 9 µM)
- MIC [25]: 0.5 to 1 µg/mL (≈ 1.13 to 2.25 µM)
- MIC [26]: 0.12 to 16 µg/mL (≈ 0.27 to 36 µM)
- MIC Range [27]: 0.015 to 16 µg/mL
- MIC [28]: 0.5 to 1 µg/mL (≈ 1.13 to 2.25 µM)
- MIC [29]: 0.12 µg/mL (≈ 0.27 µM)
- MIC [30]: 0.06 to 0.5 µg/mL (≈ 0.135 to 1.13 µM)
- MIC [31]: 32 µg/mL (≈ 72 µM)
- MIC [32]: 1 to 32 µg/mL (≈ 2.25 to 72 µM)
- MIC [33]: 0.5 µg/mL (≈ 1.13 µM)
- MIC [34]: 0.25 to 64 µg/mL (≈ 0.563 to 144 µM)
- MIC [35]: 2 to 32 µg/mL (≈ 4.5 to 72 µM)
- MIC [36]: 0.5 µg/mL (≈ 1.13 µM)
